From ChEMBL document CHEMBL1201861, “Genomics of Drug Sensitity in Cancer screening data, Wellcome Trust Sanger Institute”

Tests used:
Test in all cases: cells
Conditions in all cases: Homo sapiens
IST-MES1 = assay type: functional, cell-based;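 note: growth inhibition of IST-MES1 cells, measured with a cell viability assay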
Description: SANGER: Inhibition of human IST-MES1 cell growth in a cell viability assay.

ES1 = assay type: functional, cell-based
Description: SANGER: Inhibition of human ES1 cell growth in a cell viability assay.

NB69 = assay type: functional, cell-based;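 note: growth inhibition of NB69 cells, determined by a cell viability assay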
Description: SANGER: Inhibition of human NB69 cell growth in a cell viability assay.

CW-2 = assay type: functional, cell-based;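 note: growth inhibition of CW-2 cells, read out by a cell viability assay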
Description: SANGER: Inhibition of human CW-2 cell growth in a cell viability assay.

CP66-MEL = assay type: functional, cell-based;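 note: growth inhibition of CP66-MEL cells determined in a cell viability assay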
Description: SANGER: Inhibition of human CP66-MEL cell growth in a cell viability assay.

NH-12 = assay type: functional, cell-based;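 note: growth inhibition of NH-12 cells, read out with a cell viability assay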
Description: SANGER: Inhibition of human NH-12 cell growth in a cell viability assay.

MC116 = assay type: functional, cell-based;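 note: growth inhibition of MC116 cells, read out with a cell viability assay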
Description: SANGER: Inhibition of human MC116 cell growth in a cell viability assay.

SK-MEL-1 = assay type: functional, cell-based;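 note: growth inhibition of human SK-MEL-1 cells, read out by a cell viability assay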
Description: SANGER: Inhibition of human SK-MEL-1 cell growth in a cell viability assay.

GB-1 = assay type: functional, cell-based;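 note: growth of GB-1 cells judged by a viability assay, IC50 marks the concentration inhibiting growth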
Description: SANGER: Inhibition of human GB-1 cell growth in a cell viability assay.

LB2241-RCC = assay type: functional, cell-based;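 note: cell viability assay measuring how strongly the cultured human renal carcinoma line is prevented from growing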
Description: SANGER: Inhibition of human LB2241-RCC cell growth in a cell viability assay.

NCI-H510A = assay type: functional, cell-based;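 note: growth inhibition of NCI-H510A cells, read out with a cell viability assay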
Description: SANGER: Inhibition of human NCI-H510A cell growth in a cell viability assay.

TGBC24TKB = assay type: functional, cell-based;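 note: growth inhibition of human TGBC24TKB cells, read out with a cell viability assay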
Description: SANGER: Inhibition of human TGBC24TKB cell growth in a cell viability assay.

SK-N-FI = assay type: functional, cell-based;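 note: cell viability assay measuring growth inhibition of human SK-N-FI cells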
Description: SANGER: Inhibition of human SK-N-FI cell growth in a cell viability assay.

SW684 = assay type: functional, cell-based;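 note: growth inhibition of human SW684 cells, measured by a cell viability assay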
Description: SANGER: Inhibition of human SW684 cell growth in a cell viability assay.

U-266 = assay type: functional, cell-based
Description: SANGER: Inhibition of human U-266 cell growth in a cell viability assay.

ES6 = assay type: functional, cell-based;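 note: growth inhibition of human ES6 cells, read out with a cell viability assay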
Description: SANGER: Inhibition of human ES6 cell growth in a cell viability assay.

RPMI-8226 = assay type: functional, cell-based
Description: SANGER: Inhibition of human RPMI-8226 cell growth in a cell viability assay.

MV4-11 = assay type: functional, cell-based, MV-4-11;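 note: cell viability readout measuring growth inhibition of human MV-4-11 cells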
Description: SANGER: Inhibition of human MV-4-11 cell growth in a cell viability assay.

ALL-PO = assay type: functional, cell-based;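 note: growth inhibition of ALL-PO cells, read out by a cell viability assay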
Description: SANGER: Inhibition of human ALL-PO cell growth in a cell viability assay.

HT = assay type: functional, cell-based
Description: SANGER: Inhibition of human HT cell growth in a cell viability assay.

GI-1 = assay type: functional, cell-based
Description: SANGER: Inhibition of human GI-1 cell growth in a cell viability assay.

DU-4475 = assay type: functional, cell-based
Description: SANGER: Inhibition of human DU-4475 cell growth in a cell viability assay.

ES3 = assay type: functional, cell-based;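 note: growth inhibition of ES3 cells, read out with a cell viability assay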
Description: SANGER: Inhibition of human ES3 cell growth in a cell viability assay.

MOLT-4 = assay type: functional, cell-based;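 note: growth inhibition of MOLT-4 cells, determined with a cell viability readout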
Description: SANGER: Inhibition of human MOLT-4 cell growth in a cell viability assay.

NCI-H1299 = assay type: functional, cell-based;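 note: growth inhibition of human NCI-H1299 cells, read out by a cell viability assay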
Description: SANGER: Inhibition of human NCI-H1299 cell growth in a cell viability assay.

SNB-75 = assay type: functional, cell-based;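 note: cell viability assay measuring growth inhibition of human SNB-75 cells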
Description: SANGER: Inhibition of human SNB75 cell growth in a cell viability assay.

MZ2-MEL = assay type: functional, cell-based;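 note: growth inhibition of MZ2-MEL cells read out with a cell viability assay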
Description: SANGER: Inhibition of human MZ2-MEL cell growth in a cell viability assay.

SW 954 = assay type: functional, cell-based;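 note: growth inhibition of SW954 human cancer cells, read out as cell viability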
Description: SANGER: Inhibition of human SW954 cell growth in a cell viability assay.

Ramos-2G6-4C10 = assay type: functional, cell-based;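 note: growth inhibition of the cell line, measured by a cell viability read-out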
Description: SANGER: Inhibition of human Ramos-2G6-4C10 cell growth in a cell viability assay.

OCI-AML2 = assay type: functional, cell-based;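 note: growth inhibition of OCI-AML2 cells, read out with a cell viability assay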
Description: SANGER: Inhibition of human OCI-AML2 cell growth in a cell viability assay.

LU-134-A = assay type: functional, cell-based
Description: SANGER: Inhibition of human LU-134-A cell growth in a cell viability assay.

MSTO-211H = assay type: functional, cell-based
Description: SANGER: Inhibition of human MSTO-211H cell growth in a cell viability assay.

SW982 = assay type: functional, cell-based;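 note: growth inhibition of SW982 cells, read out with a cell viability assay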
Description: SANGER: Inhibition of human SW982 cell growth in a cell viability assay.

KG-1 = assay type: functional, cell-based;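 note: growth inhibition of KG-1 cells, read out by a cell viability assay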
Description: SANGER: Inhibition of human KG-1 cell growth in a cell viability assay.

NCI-H1770 = assay type: functional, cell-based;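 note: growth inhibition of NCI-H1770 cells determined with a viability readout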
Description: SANGER: Inhibition of human NCI-H1770 cell growth in a cell viability assay.

ES7 = assay type: functional, cell-based;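 note: growth inhibition of cultured human ES7 cells, read out as cell viability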
Description: SANGER: Inhibition of human ES7 cell growth in a cell viability assay.

DMS-79 = assay type: functional, cell-based;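 note: growth inhibition measured with a cell viability assay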
Description: SANGER: Inhibition of human DMS-79 cell growth in a cell viability assay.

SNU1 = assay type: functional, cell-based;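 note: growth inhibition of human NCI-SNU-1 cells, measured with a cell viability assay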
Description: SANGER: Inhibition of human NCI-SNU-1 cell growth in a cell viability assay.

KU812 cell line = assay type: functional, cell-based;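 note: growth inhibition of KU812 cells, read out with a cell viability assay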
Description: SANGER: Inhibition of human KU812 cell growth in a cell viability assay.

NCI-H446 = assay type: functional, cell-based;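 note: growth inhibition of NCI-H446 cells determined by a cell viability assay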
Description: SANGER: Inhibition of human NCI-H446 cell growth in a cell viability assay.

CTB-1 = assay type: functional, cell-based
Description: SANGER: Inhibition of human CTB-1 cell growth in a cell viability assay.

BB30-HNC = assay type: functional, cell-based;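 note: growth inhibition of the cultured cell line, read out by a cell viability assay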
Description: SANGER: Inhibition of human BB30-HNC cell growth in a cell viability assay.

KP-N-YS = assay type: functional, cell-based;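 note: cell viability assay measuring inhibition of cell line growth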
Description: SANGER: Inhibition of human KP-N-YS cell growth in a cell viability assay.

NB13 = assay type: functional, cell-based;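 note: cell viability readout measuring growth inhibition of human NB13 cells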
Description: SANGER: Inhibition of human NB13 cell growth in a cell viability assay.

EC-GI-10 = assay type: functional, cell-based
Description: SANGER: Inhibition of human EC-GI-10 cell growth in a cell viability assay.

SF-539 = assay type: functional, cell-based;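 note: Read-out is a cell viability assay, with IC50 reflecting inhibition of cell growth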
Description: SANGER: Inhibition of human SF539 cell growth in a cell viability assay.

MHH-PREB-1 = assay type: functional, cell-based;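 note: cell viability assay measuring inhibition of proliferation of human MHH-PREB-1 cells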
Description: SANGER: Inhibition of human MHH-PREB-1 cell growth in a cell viability assay.

BB65-RCC = assay type: functional, cell-based;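 note: growth inhibition of the cell line, measured with a cell viability assay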
Description: SANGER: Inhibition of human BB65-RCC cell growth in a cell viability assay.

Becker = assay type: functional, cell-based;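 note: growth inhibition of Becker cells, read out with a cell viability assay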
Description: SANGER: Inhibition of human Becker cell growth in a cell viability assay.

ATN-1 = assay type: functional, cell-based;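 note: growth inhibition of human ATN-1 cells, read out with a cell viability assay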
Description: SANGER: Inhibition of human ATN-1 cell growth in a cell viability assay.

HDLM-2 = assay type: functional, cell-based;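 note: cell viability assay measuring suppression of HDLM-2 proliferation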
Description: SANGER: Inhibition of human HDLM-2 cell growth in a cell viability assay.

697 = assay type: functional, cell-based
Description: SANGER: Inhibition of human 697 cell growth in a cell viability assay.

D-502MG = assay type: functional, cell-based
Description: SANGER: Inhibition of human D-502MG cell growth in a cell viability assay.

HCC2218 = assay type: functional, cell-based;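 note: cell viability assay read-out, with IC50 given as the concentration that inhibits growth of the cell line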
Description: SANGER: Inhibition of human HCC2218 cell growth in a cell viability assay.

JVM-3 = assay type: functional, cell-based;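 note: growth inhibition of human JVM-3 cells, read out with a cell viability assay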
Description: SANGER: Inhibition of human JVM-3 cell growth in a cell viability assay.

D283 Med = assay type: functional, cell-based
Description: SANGER: Inhibition of human D-283MED cell growth in a cell viability assay.

MLMA = assay type: functional, cell-based;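 note: growth inhibition of MLMA cells (human), determined through a cell viability readout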
Description: SANGER: Inhibition of human MLMA cell growth in a cell viability assay.

KURAMOCHI = assay type: functional, cell-based;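 note: growth inhibition of KURAMOCHI cells, read out with a cell viability assay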
Description: SANGER: Inhibition of human KURAMOCHI cell growth in a cell viability assay.

OMC-1 = assay type: functional, cell-based;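 note: growth inhibition of the OMC-1 cell line, measured by a cell viability assay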
Description: SANGER: Inhibition of human OMC-1 cell growth in a cell viability assay.

ONS-76 = assay type: functional, cell-based;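 note: growth inhibition of human ONS-76 cells, read out with a cell viability assay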
Description: SANGER: Inhibition of human ONS-76 cell growth in a cell viability assay.

J-RT3-T3-5 = assay type: functional, cell-based;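 note: cell viability assay measuring growth inhibition of human J-RT3-T3-5 cells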
Description: SANGER: Inhibition of human J-RT3-T3-5 cell growth in a cell viability assay.

LU-139 = assay type: functional, cell-based
Description: SANGER: Inhibition of human LU-139 cell growth in a cell viability assay.

DMS-114 = assay type: functional, cell-based
LS-513 = assay type: functional, cell-based
Description: SANGER: Inhibition of human LS-513 cell growth in a cell viability assay.

LB771-HNC = assay type: functional, cell-based;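 note: growth inhibition of LB771-HNC human cells, read out with a cell viability assay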
Description: SANGER: Inhibition of human LB771-HNC cell growth in a cell viability assay.

SMILES: Cn1cc(/C=C2\C(=O)Nc3cccnc32)c2ccccc21
- IC50 (IST-MES1): > 2000 nM
- IC50 (ES1): > 2000 nM
- IC50 (NB69): > 2000 nM
- IC50 (CW-2): > 2000 nM
- IC50 (CP66-MEL): > 2000 nM
- IC50 (NH-12): > 2000 nM
- IC50 (MC116): > 2000 nM
- IC50 (SK-MEL-1): > 2000 nM
- IC50 (GB-1): > 2000 nM
- IC50 (LB2241-RCC): > 2000 nM
- IC50 (NCI-H510A): > 2000 nM
- IC50 (TGBC24TKB): > 2000 nM
- IC50 (SK-N-FI): > 2000 nM
- IC50 (SW684): > 2000 nM
- IC50 (U-266): > 2000 nM
- IC50 (ES6): > 2000 nM
- IC50 (RPMI-8226): > 2000 nM
- IC50 (MV4-11): 295 nM
- IC50 (ALL-PO): > 2000 nM
- IC50 (HT): > 2000 nM
- IC50 (GI-1): > 2000 nM
- IC50 (DU-4475): > 2000 nM
- IC50 (ES3): > 2000 nM
- IC50 (MOLT-4): > 2000 nM
- IC50 (NCI-H1299): > 2000 nM
- IC50 (SNB-75): > 2000 nM
- IC50 (MZ2-MEL): > 2000 nM
- IC50 (SW 954): > 2000 nM
- IC50 (Ramos-2G6-4C10): > 2000 nM
- IC50 (OCI-AML2): > 2000 nM
- IC50 (LU-134-A): > 2000 nM
- IC50 (MSTO-211H): > 2000 nM
- IC50 (SW982): > 2000 nM
- IC50 (KG-1): > 2000 nM
- IC50 (NCI-H1770): > 2000 nM
- IC50 (ES7): > 2000 nM
- IC50 (DMS-79): > 2000 nM
- IC50 (SNU1): > 2000 nM
- IC50 (KU812 cell line): > 2000 nM
- IC50 (NCI-H446): > 2000 nM
- IC50 (CTB-1): > 2000 nM
- IC50 (BB30-HNC): > 2000 nM
- IC50 (KP-N-YS): > 2000 nM
- IC50 (NB13): > 2000 nM
- IC50 (EC-GI-10): > 2000 nM
- IC50 (SF-539): > 2000 nM
- IC50 (MHH-PREB-1): > 2000 nM
- IC50 (BB65-RCC): > 2000 nM
- IC50 (Becker): > 2000 nM
- IC50 (ATN-1): > 2000 nM
- IC50 (HDLM-2): > 2000 nM
- IC50 697: > 2000 nM
- IC50 (D-502MG): > 2000 nM
- IC50 (HCC2218): > 2000 nM
- IC50 (JVM-3): > 2000 nM
- IC50 (D283 Med): > 2000 nM
- IC50 (MLMA): > 2000 nM
- IC50 (KURAMOCHI): > 2000 nM
- IC50 (OMC-1): > 2000 nM
- IC50 (ONS-76): > 2000 nM
- IC50 (J-RT3-T3-5): > 2000 nM
- IC50 (LU-139): > 2000 nM
- IC50 (DMS-114): > 2000 nM
- IC50 (LS-513): > 2000 nM
- IC50 (LB771-HNC): > 2000 nM

SMILES: Fc1cc(-c2cc[nH]/c(=N/c3ccc(-n4cnc(N5CCOCC5)n4)cc3)n2)cc(N2CCOCC2)c1
- IC50 (IST-MES1): 1970 nM
- IC50 (ES1): 685 nM
- IC50 (NB69): 1430 nM
- IC50 (CW-2): > 5120 nM
- IC50 (CP66-MEL): 820 nM
- IC50 (NH-12): 465 nM
- IC50 (MC116): 411 nM
- IC50 (SK-MEL-1): 1330 nM
- IC50 (GB-1): 328 nM
- IC50 (LB2241-RCC): 733 nM
- IC50 (NCI-H510A): > 5120 nM
- IC50 (TGBC24TKB): 1040 nM
- IC50 (SK-N-FI): > 5120 nM
- IC50 (SW684): 3040 nM
- IC50 (U-266): 882 nM
- IC50 (ES6): 406 nM
- IC50 (RPMI-8226): 1030 nM
- IC50 (MV4-11): 545 nM
- IC50 (ALL-PO): 671 nM
- IC50 (HT): 633 nM
- IC50 (GI-1): 171 nM
- IC50 (DU-4475): 569 nM
- IC50 (ES3): 1090 nM
- IC50 (MOLT-4): 716 nM
- IC50 (NCI-H1299): 366 nM
- IC50 (SNB-75): 291 nM
- IC50 (MZ2-MEL): 410 nM
- IC50 (SW 954): 473 nM
- IC50 (Ramos-2G6-4C10): 393 nM
- IC50 (OCI-AML2): 498 nM
- IC50 (LU-134-A): 594 nM
- IC50 (MSTO-211H): > 5120 nM
- IC50 (SW982): 121 nM
- IC50 (KG-1): 482 nM
- IC50 (NCI-H1770): 805 nM
- IC50 (ES7): 325 nM
- IC50 (DMS-79): 4280 nM
- IC50 (SNU1): 458 nM
- IC50 (KU812 cell line): 338 nM
- IC50 (NCI-H446): 1140 nM
- IC50 (CTB-1): 1110 nM
- IC50 (BB30-HNC): 122 nM
- IC50 (KP-N-YS): 695 nM
- IC50 (NB13): 4910 nM
- IC50 (EC-GI-10): 2240 nM
- IC50 (SF-539): 673 nM
- IC50 (MHH-PREB-1): 430 nM
- IC50 (BB65-RCC): 924 nM
- IC50 (Becker): 1060 nM
- IC50 (ATN-1): 505 nM
- IC50 (HDLM-2): 721 nM
- IC50 697: 373 nM
- IC50 (D-502MG): 1050 nM
- IC50 (HCC2218): 1090 nM
- IC50 (JVM-3): > 5120 nM
- IC50 (D283 Med): 2560 nM
- IC50 (MLMA): 484 nM
- IC50 (KURAMOCHI): 598 nM
- IC50 (OMC-1): 3970 nM
- IC50 (ONS-76): 396 nM
- IC50 (J-RT3-T3-5): 689 nM
- IC50 (LU-139): 1970 nM
- IC50 (DMS-114): > 5120 nM
- IC50 (LS-513): 1140 nM
- IC50 (LB771-HNC): 77.7 nM
